We go through 17 compounds from ChEMBL document CHEMBL1909046, “DrugMatrix in vitro pharmacology data”.

Assay [1] addresses T1, Amine oxidase [flavin-containing] A (Homo sapiens, UniProt P21397).
T1 sequence (P21397 whole entry): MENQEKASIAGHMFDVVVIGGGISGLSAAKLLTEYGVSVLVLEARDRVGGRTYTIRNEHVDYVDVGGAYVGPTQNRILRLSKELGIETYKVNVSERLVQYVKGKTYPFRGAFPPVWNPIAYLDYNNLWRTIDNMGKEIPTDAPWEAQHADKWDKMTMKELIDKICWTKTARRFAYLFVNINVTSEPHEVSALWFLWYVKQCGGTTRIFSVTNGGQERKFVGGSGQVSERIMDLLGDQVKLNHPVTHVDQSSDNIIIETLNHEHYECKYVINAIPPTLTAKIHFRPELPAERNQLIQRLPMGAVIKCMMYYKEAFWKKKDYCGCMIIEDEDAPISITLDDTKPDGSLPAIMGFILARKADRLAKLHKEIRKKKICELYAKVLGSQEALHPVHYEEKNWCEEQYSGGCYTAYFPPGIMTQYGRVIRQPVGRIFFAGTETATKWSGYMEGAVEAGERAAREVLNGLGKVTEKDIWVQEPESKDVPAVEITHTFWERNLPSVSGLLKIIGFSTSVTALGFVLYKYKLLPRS
The experiment in a line: DRUGMATRIX: Monoamine Oxidase MAO-A enzyme inhibition (substrate: Kynuramine). On the set-up: species or system BTI-TN-5B1-4. The note with it: bti-tn-5b1-4; Not Active = under 50% inhibition at 10 µM.

Assay [2] deals with T2, Thromboxane-A synthase (Homo sapiens, UniProt P24557).
T2 sequence (P24557 whole entry): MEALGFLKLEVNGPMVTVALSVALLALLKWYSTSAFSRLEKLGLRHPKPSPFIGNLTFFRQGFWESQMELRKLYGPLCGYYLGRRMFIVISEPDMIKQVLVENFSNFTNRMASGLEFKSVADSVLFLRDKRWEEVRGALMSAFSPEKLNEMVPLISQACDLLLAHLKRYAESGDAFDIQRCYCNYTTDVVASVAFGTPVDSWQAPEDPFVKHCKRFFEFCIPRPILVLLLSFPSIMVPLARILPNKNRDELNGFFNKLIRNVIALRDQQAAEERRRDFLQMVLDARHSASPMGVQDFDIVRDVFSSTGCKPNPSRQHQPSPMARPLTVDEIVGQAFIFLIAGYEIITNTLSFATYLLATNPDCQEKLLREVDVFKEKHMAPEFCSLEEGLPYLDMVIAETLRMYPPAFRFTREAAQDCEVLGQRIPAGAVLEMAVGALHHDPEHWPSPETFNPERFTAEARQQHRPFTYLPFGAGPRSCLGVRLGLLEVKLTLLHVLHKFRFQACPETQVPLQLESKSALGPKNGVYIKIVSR
Description: biochemical. It is filed as tissue-based, Platelet.

The nature of assay [3]: DRUGMATRIX: Calcium Channel Type L, Benzothiazepine radioligand binding (ligand: [3H] Diltiazem). The format is cell membranes, Rattus norvegicus, Wistar, Brain, Membrane. Conditions: Not Active = under 50% inhibition at 10 µM.
The target in assay [4] is T3, D(4) dopamine receptor (Homo sapiens, UniProt P21917).
T3 sequence (P21917 whole entry): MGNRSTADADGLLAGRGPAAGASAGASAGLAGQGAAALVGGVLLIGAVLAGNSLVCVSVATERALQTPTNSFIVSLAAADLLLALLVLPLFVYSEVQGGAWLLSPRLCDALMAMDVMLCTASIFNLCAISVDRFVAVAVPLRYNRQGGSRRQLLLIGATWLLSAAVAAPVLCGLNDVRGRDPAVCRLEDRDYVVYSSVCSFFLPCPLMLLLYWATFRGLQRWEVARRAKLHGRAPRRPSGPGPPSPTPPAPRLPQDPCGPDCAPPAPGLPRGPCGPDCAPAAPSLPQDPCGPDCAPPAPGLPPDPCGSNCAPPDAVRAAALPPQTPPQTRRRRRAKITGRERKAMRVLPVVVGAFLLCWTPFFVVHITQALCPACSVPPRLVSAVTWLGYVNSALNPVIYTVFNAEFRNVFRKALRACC
Description: DRUGMATRIX: Dopamine D4.2 radioligand binding (ligand: [3H] Spiperone). It is filed as cell membranes, CHO-K1, Membrane. Conditions: cho-k1; Not Active = under 50% inhibition at 10 µM.

In assay [5] the target is Aldo-keto reductase family 1 member B1 (Rattus norvegicus, UniProt P07943). The experiment in a line: biochemical. The format is tissue-based, Lens of camera-type eye.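 Also: inhibition of aldose reductase enzyme activity, measured with DL-glyceraldehyde as the substrate; in other assays of this panel Not Active means under 50% inhibition at 10 µM.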
For assay [6], the target named is Mitogen-activated protein kinase 1 (Homo sapiens, UniProt P28482). The experiment in a line: DRUGMATRIX: Protein Serine/Threonine Kinase, ERK2 enzyme inhibition (substrate: Myelin Basic Protein). The arrangement: species or system Escherichia coli. The note with it: Not Active = under 50% inhibition at 10 µM.
Chain of Mitogen-activated protein kinase 1 (P28482 whole entry): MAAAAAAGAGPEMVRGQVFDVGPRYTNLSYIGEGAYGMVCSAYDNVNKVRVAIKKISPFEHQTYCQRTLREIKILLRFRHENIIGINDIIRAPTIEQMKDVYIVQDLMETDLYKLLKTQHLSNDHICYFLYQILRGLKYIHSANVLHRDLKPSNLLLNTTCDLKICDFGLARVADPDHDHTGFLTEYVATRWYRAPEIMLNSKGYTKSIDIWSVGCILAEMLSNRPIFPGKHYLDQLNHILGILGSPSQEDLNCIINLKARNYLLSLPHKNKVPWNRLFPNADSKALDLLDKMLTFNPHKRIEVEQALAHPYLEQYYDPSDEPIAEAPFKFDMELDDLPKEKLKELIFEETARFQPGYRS

Regarding `CN1C(=O)OC(C)(C)C1=O` [TRIMETHADIONE], the IC50 result in assay [1], in assay [2] (platelet), in assay [3], in assay [4], in assay [5] and in assay [6] was “Not Active” each time. The Ki result in assay [3] is listed as “Not Active”.
Turning to `CC(O)C(=O)O` (centres undefined) [LACTIC ACID], the IC50 result in assay [1], in assay [2] (platelet), in assay [3], in assay [4], in assay [5] and in assay [6] was “Not Active” in each case. Also, the Ki result in assay [3] is given as “Not Active”.
Take `CS(=O)(=O)c1ccc(C2=C(c3ccccc3)C(=O)OC2)cc1` [ROFECOXIB]: the IC50 result in assay [1], in assay [2] (platelet), in assay [3], in assay [4], in assay [5] and in assay [6] was “Not Active” in each case. The Ki entry in assay [3] is “Not Active”.
As to `C[N+]1(C)[C@@H]2C[C@@H](OC(=O)[C@H](CO)c3ccccc3)C[C@H]1[C@@H]1O[C@@H]12.[Br-]` [METHSCOPOLAMINE BROMIDE], the IC50 entry in assay [1], in assay [2] (platelet), in assay [3], in assay [4], in assay [5] and in assay [6] was “Not Active” each time. The Ki entry in assay [3] is “Not Active”.
On to `Cc1nnc(NS(=O)(=O)c2ccc(N)cc2)s1` [SULFAMETHIZOLE], for which the IC50 result in assay [1], in assay [2] (platelet), in assay [3], in assay [4], in assay [5] and in assay [6] was “Not Active” in each case. The Ki entry in assay [3] is recorded as “Not Active”.
Take `CC(=O)O[C@]1(C(C)=O)CC[C@H]2[C@@H]3C[C@H](C)C4=CC(=O)CC[C@]4(C)[C@H]3CC[C@@]21C` [MEDROXYPROGESTERONE ACETATE]: the IC50 entry in assay [1], in assay [2] (platelet), in assay [3], in assay [4], in assay [5] and in assay [6] was “Not Active” in each case. Further, the Ki entry in assay [3] is “Not Active”.
With `CC1(C)[C@H](C(=O)O)N2C(=O)C[C@H]2S1(=O)=O` [SULBACTAM], the IC50 result in assay [1], in assay [2] (platelet), in assay [3], in assay [4], in assay [5] and in assay [6] was “Not Active” each time. The Ki entry in assay [3] is recorded as “Not Active”.
Consider `O=C(O)c1cc(/N=N/c2ccc(S(=O)(=O)Nc3ccccn3)cc2)ccc1O` [SULFASALAZINE], for which the IC50 entry in assay [1] was “Not Active”; in assay [2] (read-out: IC50), 19.6 µM; in assay [3], “Not Active”; in assay [4], “Not Active”; in assay [5] (read-out: IC50) it was 17 µM; in assay [6] (read-out: IC50) it was 6.33 µM. In addition, in assay [3], the Ki result was “Not Active”.
In the case of `CCN(CC)CCNC(=O)c1cc(Cl)c(N)cc1OC` [METOCLOPRAMIDE], the IC50 result in assay [1], in assay [2] (platelet), in assay [3], in assay [4], in assay [5] and in assay [6] was “Not Active” throughout. In addition, the Ki result in assay [3] is “Not Active”.
As to `COC(=O)Nc1nc2ccc(C(=O)c3ccccc3)cc2[nH]1` [MEBENDAZOLE], the IC50 entry in assay [1], in assay [2] (platelet), in assay [3], in assay [4], in assay [5] and in assay [6] was “Not Active” throughout. Further, in assay [3], the Ki entry was “Not Active”.
Turning to `Cc1ccnc(NS(=O)(=O)c2ccc(N)cc2)n1` [SULFAMERAZINE], the IC50 result in assay [1], in assay [2] (platelet), in assay [3], in assay [4], in assay [5] and in assay [6] was “Not Active” throughout. Also, the Ki result in assay [3] was “Not Active”.
Take `Cc1cccc(C)c1NC(=O)C(C)N` (centres undefined) [TOCAINIDE]: the IC50 result in assay [1], in assay [2] (platelet), in assay [3], in assay [4], in assay [5] and in assay [6] was “Not Active” throughout. Also, the Ki entry in assay [3] is “Not Active”.
Take `CC#C[C@]1(O)CC[C@H]2[C@@H]3CCC4=CC(=O)CCC4=C3[C@@H](c3ccc(N(C)C)cc3)C[C@@]21C` [MIFEPRISTONE]: the IC50 entry in assay [1] was “Not Active”; in assay [2] (platelet) it was “Not Active”; in assay [3] (read-out: IC50) it was 29 µM; in assay [4], “Not Active”; in assay [5] it was “Not Active”; in assay [6], “Not Active”. In addition, in assay [3] (read-out: Ki), the Ki worked out at 25.8 µM.
In the case of `C[C@]12CCC(=O)C[C@@H]1CC[C@@H]1[C@@H]2CC[C@]2(C)[C@@H](O)CC[C@@H]12` [STANOLONE], the IC50 result in assay [1], in assay [2] (platelet), in assay [3], in assay [4], in assay [5] and in assay [6] was “Not Active” in each case. For the same compound, the Ki result in assay [3] was “Not Active”.
Turning to `C1CCN2C[C@@H]3C[C@@H](CN4CCCC[C@@H]34)[C@H]2C1` [SPARTEINE], the IC50 result in assay [1], in assay [2] (platelet), in assay [3], in assay [4], in assay [5] and in assay [6] was “Not Active” in each case. The Ki result in assay [3] was “Not Active”.
Turning to `CO[C@@H]1[C@@H](OC)[C@H](C)[C@@](O)(CC(=O)O)O[C@H]1[C@H](C)[C@H]1O[C@@]2(CC[C@@](C)([C@H]3CC[C@@](C)([C@@H]4O[C@@H]([C@H]5O[C@](C)(O)[C@H](C)C[C@@H]5C)C[C@@H]4O[C@@H]4C[C@H](OC)[C@@H](OC)[C@H](C)O4)O3)O2)C[C@H](O)[C@H]1C.N` [MADURAMICIN], the IC50 result in assay [1], in assay [2] (platelet), in assay [3], in assay [4], in assay [5] and in assay [6] was “Not Active” in each case. The Ki result in assay [3] is given as “Not Active”.
Regarding `CC(N)C12CC3CC(CC(C3)C1)C2` (centres undefined) [RIMANTADINE], the IC50 result in assay [1], in assay [2] (platelet), in assay [3], in assay [4], in assay [5] and in assay [6] was “Not Active” in each case. Besides, in assay [3], the Ki entry was “Not Active”.
